pKi: −log10 of the molar value. Where two headings read alike, the source gives them in different places. Where only a bound is given, the exact number is not on record here.

Experiment [1] concerns induction of TAT by dexamethasone in HepG2 cells. Briefly: HepG2 tyrosine aminotransferase (TAT) assay. In kind it is cell-based, human. The protocol:
Example 21. HepG2 Tyrosine Aminotransferase (TAT) Assay
Glucocorticoid mediated activation of TAT occurs by transactivation of glucocorticoid response elements in the TAT promoter by glucocorticoid receptor agonist complex.
TAT activity was measured as outlined in the literature by A. Ali et al., J. Med. Chem., 2004, 47, 2441-2452.
HepG2 cells were cultured using MEME media supplemented with 10% (v/v) foetal bovine serum; 2 mM L-glutamine and 1% (v/v) NEAA at 37° C., 5%/95% (v/v) CO2/air. The HepG2 cells were counted and adjusted to yield a density of 0.125×10^6 cells/ml in RPMI 1640 without phenol red, 10% (v/v) charcoal stripped FBS, 2 mM L-glutamine and seeded at 25,000 cells/well in 200 μl into 96 well, sterile, tissue culture micro titre plates, and incubated at 37° C., 5% CO2 for 24 hours
Growth media was removed and replaced with assay media {RPMI 1640 without phenol red, 2 mM L-glutamine+10 μM forskolin}. […] Compounds were serially half log diluted in 100% (v/v) dimethylsupfoxide from a 10 mM stock.
HepG2 cells were then lysed with 30 μl of cell lysis buffer containing a protease inhibitor cocktail for 15 minutes at 4° C. 155 μl of substrate mixture was then added containing 5.4 mM Tyrosine sodium salt, 10.8 mM alpha ketoglutarate and 0.06 mM pyridoxal 5′ phosphate in 0.1M potassium phosphate buffer (pH 7.4). After 2 hours incubation at 37° C. the reaction was terminated by the addition of 15 μl of 10M aqueous potassium hydroxide solution, and the plates incubated for a further 30 minutes at 37° C. The TAT activity product was measured by absorbance at […].
[compound] and fitting the data to a 4 parameter logistic equation.

The target of the next experiment is T1, human recombinant GR (Homo sapiens, UniProt P04150).
T1 construct: purchased PanVera P2812
T1 sequence (P04150 1-777): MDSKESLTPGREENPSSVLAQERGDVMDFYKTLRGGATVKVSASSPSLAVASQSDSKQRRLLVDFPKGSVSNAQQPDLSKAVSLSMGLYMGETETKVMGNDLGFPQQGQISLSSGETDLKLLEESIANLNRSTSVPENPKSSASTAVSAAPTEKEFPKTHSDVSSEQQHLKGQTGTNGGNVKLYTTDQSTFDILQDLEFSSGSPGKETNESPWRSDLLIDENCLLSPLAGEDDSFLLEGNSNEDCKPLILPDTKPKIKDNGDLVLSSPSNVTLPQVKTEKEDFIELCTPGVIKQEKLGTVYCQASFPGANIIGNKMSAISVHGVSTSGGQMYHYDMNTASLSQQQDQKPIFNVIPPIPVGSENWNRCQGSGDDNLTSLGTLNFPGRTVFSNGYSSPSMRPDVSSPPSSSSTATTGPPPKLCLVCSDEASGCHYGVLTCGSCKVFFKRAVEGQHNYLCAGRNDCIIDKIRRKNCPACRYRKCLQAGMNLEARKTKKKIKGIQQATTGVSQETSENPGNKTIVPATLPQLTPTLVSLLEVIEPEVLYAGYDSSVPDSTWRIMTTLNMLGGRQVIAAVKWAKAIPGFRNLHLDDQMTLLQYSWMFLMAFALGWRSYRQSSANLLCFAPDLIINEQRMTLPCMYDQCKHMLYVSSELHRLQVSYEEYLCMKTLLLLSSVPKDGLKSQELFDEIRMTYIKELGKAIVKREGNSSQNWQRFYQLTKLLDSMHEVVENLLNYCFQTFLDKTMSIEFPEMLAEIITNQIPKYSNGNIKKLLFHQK
The experiment in a line: Human glucocorticoid receptor (GR) fluorescence polarisation (FP) binding assay. On the procedure:
Human Glucocorticoid Receptor (GR) Fluorescence Polarisation (FP) Binding Assay
The following is a description of a FP assay for measuring compound inhibition of labelled glucocorticoid binding to the human recombinant GR.
The binding affinity of test compounds was determined using a FP binding assay using human recombinant GR (PanVera P2812) and a fluorescent labelled glucocorticoid ligand (Fluorome GS Red) (PanVera P2894). The presence of inhibitors prevents the formation of a GS Red/GR complex resulting in a decrease in the measured polarisation value. The change in polarisation value in the presence of test compounds is used to calculate the binding affinity of the compound for GR.
This assay was performed in 384 well, black, round-bottom, polypropylene micro titre plates in a final volume of 20 μl. The assay contained 5 μl 1 nM GR (final concentration), 5 μl 0.5 nM Fluorome GS Red (final concentration) in the presence of 10 μl test compounds. Positive control wells (high polarisation) receive, 10 μl 2% (v: v) DMSO vehicle (1% (v/v) final concentration)+5 μl 1 nM GR and 5 μl 0.5 nM Fluorome GS Red. […] Assay blank background wells (used for normalisation) receive 15 μl 1× GS screening buffer+5 μl GR.
Compounds were prepared as solubilised solids at 10 mM in DMSO. On the day of assay, an 8 point half-log serial dilution (55 μl DMSO+25 μl compound solution) was prepared. A 1:50 dilution (1 μl compound solution+49 μl 1× GR screening buffer) was prepared for each compound. The compounds were prepared at 2× final assay concentration.
The plates were mixed and incubated for 4 hour at room temperature.
10× GR screening buffer (100 mM potassium phosphate pH 7.4, 200 mM Na2MoO4, 1 mM EDTA, 20% (v/v) DMSO). To prepare 1× GR screening buffer, combine 1 ml 10× GR screening buffer (PanVera P2814)+1 ml stabilising peptide (PanVera P2815)+7.95 ml 4° C. MQ water. Add 50 μl 1M DTT, vortex and place on ice until use.
On the technique in general: Fluorescence polarisation rises when a labelled molecule tumbles more slowly, as on binding a larger partner.

Setting [2] is: HepG2 cells, challenge of 100 nM dexamethasone, Ki from IC50 by Cheng and Prusoff equation.
[3] abbreviates: human recombinant GR, fluorescence polarisation binding assay, read-out: GR binding.

On to `O=C(c1cnccn1)[C@]12Cc3cnn(-c4ccc(F)cc4)c3C=C1CCN(S(=O)(=O)c1ccc(C(F)(F)F)cc1)C2` [Example 5E, (R)-(1-(4-fluorophenyl)-6-((4-(trifluoromethyl)phenyl)sulfonyl)-4,4a,5,6,7,8-hexahydro-1H-pyrazolo[3,4-g]isoquinolin-4a-yl)(pyrazin-2-yl)methanone], for which the results for the pKi (in experiment [1]; at human recombinant GR) were 7.00 to 7.70 and > 9.30, respectively.

On to `CC(C)n1nncc1S(=O)(=O)N1CCC2=Cc3c(cnn3-c3ccc(F)cc3)C[C@]2(C(=O)c2ccccn2)C1` [Example 11CU, (R)-(1-(4-fluorophenyl)-6-((1-isopropyl-1H-1,2,3-triazol-5-yl)sulfonyl)-4,4a,5,6,7,8-hexahydro-1H-pyrazolo[3,4-g]isoquinolin-4a-yl)(pyridin-2-yl)methanone], for which the pKi in experiment [1] (setting [2]) is 7.00 to 7.70; on human recombinant GR (setting [3]) it was 9.00 to 9.30.

`Cc1n[nH]c(C)c1S(=O)(=O)N1CCC2=Cc3c(cnn3-c3ccc(F)cc3)C[C@]2(C(=O)c2cc(C(F)(F)F)ccn2)C1` [Example 2V, (R)-(6-((3,5-dimethyl-1H-pyrazol-4-yl)sulfonyl)-1-(4-fluorophenyl)-4,4a,5,6,7,8-hexahydro-1H-pyrazolo[3,4-g]isoquinolin-4a-yl)(4-(trifluoromethyl)pyridin-2-yl)methanone]: the pKi was 7.00 to 7.70 in experiment [1] (setting [2]) and < 9.00 at human recombinant GR (setting [3]).

`O=C(c1cscn1)[C@]12Cc3cnn(-c4ccc(F)cc4)c3C=C1CCN(S(=O)(=O)c1ccc(Cl)c(Cl)c1)C2` [Example 19, (R)-(6-((3,4-dichlorophenyl)sulfonyl)-1-(4-fluorophenyl)-4,4a,5,6,7,8-hexahydro-1H-pyrazolo[3,4-g]isoquinolin-4a-yl)(thiazol-4-yl)methanone]: the pKi was > 7.70 in experiment [1] (setting [2]) and > 9.30 at human recombinant GR (setting [3]).

With `Cn1ccnc1S(=O)(=O)N1CCC2=Cc3c(cnn3-c3ccc(F)cc3)C[C@]2(C(=O)c2cc(C(F)(F)F)ccn2)C1` [Example 11BX, (R)-(1-(4-fluorophenyl)-6-((1-methyl-1H-imidazol-2-yl)sulfonyl)-4,4a,5,6,7,8-hexahydro-1H-pyrazolo[3,4-g]isoquinolin-4a-yl)(4-(trifluoromethyl)pyridin-2-yl)methanone], the pKi in experiment [1] (setting [2]) is > 7.70; at human recombinant GR (setting [3]), 9.00 to 9.30.

For the compound `O=C(c1cncs1)[C@]12Cc3cnn(-c4ccc(F)cc4)c3C=C1CCN(S(=O)(=O)c1ccc(C(F)(F)F)cc1)C2` [Example 5I, (R)-(1-(4-fluorophenyl)-6-((4-(trifluoromethyl)phenyl)sulfonyl)-4,4a,5,6,7,8-hexahydro-1H-pyrazolo[3,4-g]isoquinolin-4a-yl)(thiazol-5-yl)methanone], the pKi in experiment [1] is < 7.00; on human recombinant GR, > 9.30.

Consider `CC(C)n1cc(S(=O)(=O)N2CCC3=Cc4c(cnn4-c4ccc(F)cc4)C[C@]3(C(=O)c3ccccn3)C2)nn1` [Example 11CV, (R)-(1-(4-fluorophenyl)-6-((1-isopropyl-1H-1,2,3-triazol-4-yl)sulfonyl)-4,4a,5,6,7,8-hexahydro-1H-pyrazolo[3,4-g]isoquinolin-4a-yl)(pyridin-2-yl)methanone], for which the pKi in experiment [1] (setting [2]) was 7.00 to 7.70; at human recombinant GR (setting [3]) it was > 9.30.

Take `O=C(c1ccccn1)[C@]12Cc3cnn(-c4ccc(F)cc4)c3C=C1CCN(S(=O)(=O)c1cccc(C(F)(F)F)n1)C2` [Example 11AD, (R)-(1-(4-fluorophenyl)-6-((6-(trifluoromethyl)pyridin-2-yl)sulfonyl)-4,4a,5,6,7,8-hexahydro-1H-pyrazolo[3,4-g]isoquinolin-4a-yl)(pyridin-2-yl)methanone]: the pKi in experiment [1] (setting [2]) was > 7.70; on human recombinant GR (setting [3]) it was > 9.30.

For the compound `Cc1cccc(S(=O)(=O)N2CCC3=Cc4c(cnn4-c4ccc(F)cc4)C[C@]3(C(=O)c3ccccn3)C2)n1` [Example 11O, (R)-(1-(4-fluorophenyl)-6-((6-methylpyridin-2-yl)sulfonyl)-4,4a,5,6,7,8-hexahydro-1H-pyrazolo[3,4-g]isoquinolin-4a-yl)(pyridin-2-yl)methanone], the pKi is > 7.70 in experiment [1] (setting [2]) and > 9.30 on human recombinant GR (setting [3]).

Take `CCc1ccnc(C(=O)[C@]23Cc4cnn(-c5ccc(F)cc5)c4C=C2CCN(S(=O)(=O)c2cc(F)c(F)c(F)c2)C3)c1` [Example 1L, (R)-(4-ethylpyridin-2-yl)(1-(4-fluorophenyl)-6-((3,4,5-trifluorophenyl)sulfonyl)-4,4a,5,6,7,8-hexahydro-1H-pyrazolo[3,4-g]isoquinolin-4a-yl)methanone]: the pKi in experiment [1] (setting [2]) is > 7.70; on human recombinant GR (setting [3]), > 9.30.

Turning to `Cc1ccnc(C(=O)[C@]23Cc4cnn(-c5ccc(F)cc5)c4C=C2CCN(S(=O)(=O)c2ccc4c(c2)CC(=O)N4C)C3)c1` [Example 11AO, (R)-5-((1-(4-fluorophenyl)-4a-(4-methylpicolinoyl)-4a,5,7,8-tetrahydro-1H-pyrazolo[3,4-g]isoquinolin-6 (4H)-yl)sulfonyl)-1-methylindolin-2-one], the pKi in experiment [1] (setting [2]) was > 7.70; on human recombinant GR (setting [3]) it was > 9.30.

For `Cn1ccc(S(=O)(=O)N2CCC3=Cc4c(cnn4-c4ccc(C(F)(F)F)cc4)C[C@]3(C(=O)c3ccccn3)C2)n1` [Example 11BT, (R)-(6-((1-methyl-1H-pyrazol-3-yl)sulfonyl)-1-(4-(trifluoromethyl)phenyl)-4,4a,5,6,7,8-hexahydro-1H-pyrazolo[3,4-g]isoquinolin-4a-yl)(pyridin-2-yl)methanone], the pKi in experiment [1] (setting [2]) is ≤ 7.00; at human recombinant GR (setting [3]), < 9.00.

Regarding `COc1ccc(S(=O)(=O)N2CCC3=Cc4c(cnn4-c4ccc(F)cc4)C[C@]3(C(=O)c3ccccn3)C2)cc1` [Example 2I, (R)-(1-(4-fluorophenyl)-6-((4-methoxyphenyl)sulfonyl)-4,4a,5,6,7,8-hexahydro-1H-pyrazolo[3,4-g]isoquinolin-4a-yl)(pyridin-2-yl)methanone], the pKi in experiment [1] (setting [2]) was > 7.70; at human recombinant GR (setting [3]), > 9.30.

`CN(C)C(=O)c1cccc(S(=O)(=O)N2CCC3=Cc4c(cnn4-c4ccc(F)cc4)C[C@]3(C(=O)c3ccccn3)C2)c1` [Example 14, (R)-3-((1-(4-fluorophenyl)-4a-picolinoyl-4a,5,7,8-tetrahydro-1H-pyrazolo[3,4-g]isoquinolin-6 (4H)-yl)sulfonyl)-N,N-dimethylbenzamide]: the pKi was 7.00 to 7.70 in experiment [1] (setting [2]) and > 9.30 at human recombinant GR (setting [3]).

Values taken from patent publication US12226412B2, “Heteroaryl-ketone fused azadecalin glucocorticoid receptor modulators” (Corcept Therapeutics, Inc., priority 2012, dated 2025).
